Test results reported in ChEMBL document CHEMBL1146209, “In-silico fragment-based identification of novel angiogenesis inhibitors” (Bioorg Med Chem Lett, 2007).

Tested on: HUVEC
Experiment: Cytotoxicity against HUVEC after 24 hrs by MTT assay
Assay type: cell-based
Settings: Homo sapiens

Row | SMILES | IC50 [µM]
1 | O=S(=O)(Nc1nccs1)c1ccc(Nc2ccnc3cc(Cl)ccc23)cc1 | 74
2 | Clc1ccc(Nc2ccnc3cc(Cl)ccc23)cc1 | 88
3 | O=C1c2ccccc2C(=O)C(CCCc2ccc(Oc3ccccc3)cc2)C1O (centres undefined) | 75
4 | O=C1c2ccccc2C(=O)c2c1oc1c2ccc2ccccc21 | 63
5 | O=C(O)c1ccc(Nc2ccnc3cc(Cl)ccc23)cc1O | 90
6 | Oc1ccc(Nc2ccnc3cc(Cl)ccc23)cc1 | 82
7 | COc1ccc(CC(N)C(=O)N(C)C2C(CO)OC(n3cnc4c(N(C)C)ncnc43)C2O)cc1 (centres undefined) | 100
8 | Clc1ccc2c(NC3CCC(NC4CCCCC4)CC3)ccnc2c1 (centres undefined) | 13
9 | O=c1c(-c2ccc(O)cc2)coc2cc(O)cc(O)c12 [GENISTEIN] | 88
